What was measured:
[1] = target: T1, human A1 receptor subtype (Homo sapiens, UniProt P30542); assay: Adenosine 1 receptor subtype saturation and competition radioligand binding ([3H]DPCPX, yeast membranes)
T1 construct: yeast alpha-factor (Mfα1) prepro leader (N, cleaved yes); expressed in transfected cells; host or cells: Saccharomyces cerevisiae (strain CY12660 or related strains carrying plasmid p5095)
T1 sequence (P30542 1-326): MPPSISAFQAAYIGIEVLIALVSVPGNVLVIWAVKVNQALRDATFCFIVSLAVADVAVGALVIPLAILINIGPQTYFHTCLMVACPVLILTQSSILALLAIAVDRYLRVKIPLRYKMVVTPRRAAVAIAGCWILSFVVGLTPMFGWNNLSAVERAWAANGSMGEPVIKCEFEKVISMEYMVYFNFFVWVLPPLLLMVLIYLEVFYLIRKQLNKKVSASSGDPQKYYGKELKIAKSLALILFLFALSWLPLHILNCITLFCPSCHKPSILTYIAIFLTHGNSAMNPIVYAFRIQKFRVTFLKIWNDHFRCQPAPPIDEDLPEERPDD

human adenosine A1 (A1R) = target: T2, human adenosine A1 (A1R) (Homo sapiens, UniProt P30542); assay: Yeast β-galactosidase reporter gene assay, strain CY12660; format: cell-based; details: inhibition of NECA-induced β-galactosidase activity
T2 construct: yeast alpha-factor (Mfα1) prepro leader (N, cleaved yes); expressed in transfected cells; host or cells: Saccharomyces cerevisiae (strain CY12660 or related strains carrying plasmid p5095)
T2 sequence (P30542 1-326): T1 sequence (P30542 1-326)

[2] = target: T3, human A2a receptor subtype (Homo sapiens, UniProt P29274); assay: Adenosine 2a receptor subtype competition radioligand binding ([3H]CGS-21680, HEK293 membranes); details: no footnote at cell; footnote 8 of table: % activity @ 10 μM
T3 construct: expressed in transfected cells; host or cells: HEK-293 (Cadus clone # 5)
T3 sequence (P29274 whole entry): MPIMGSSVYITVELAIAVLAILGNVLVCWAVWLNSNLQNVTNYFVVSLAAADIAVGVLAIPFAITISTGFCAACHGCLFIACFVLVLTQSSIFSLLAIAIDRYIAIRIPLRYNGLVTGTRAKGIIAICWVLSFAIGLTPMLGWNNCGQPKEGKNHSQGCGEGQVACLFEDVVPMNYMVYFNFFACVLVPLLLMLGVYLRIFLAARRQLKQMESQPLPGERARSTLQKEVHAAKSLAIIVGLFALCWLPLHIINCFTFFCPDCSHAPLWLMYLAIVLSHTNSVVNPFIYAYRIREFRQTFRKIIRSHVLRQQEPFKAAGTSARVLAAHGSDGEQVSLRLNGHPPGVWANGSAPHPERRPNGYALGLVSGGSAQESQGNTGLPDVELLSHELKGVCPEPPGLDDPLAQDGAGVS

[3] = system: human A1 adenosine receptor; details: cited from earlier work
[4] = target: T4, human A3 receptor subtype (Homo sapiens, UniProt P0DMS8); assay: Adenosine 3 receptor competition radioligand binding ([125I]AB-MECA, HEK293 membranes)
T4 construct: expressed in transfected cells; host or cells: HEK293
T4 sequence (P0DMS8 1-318): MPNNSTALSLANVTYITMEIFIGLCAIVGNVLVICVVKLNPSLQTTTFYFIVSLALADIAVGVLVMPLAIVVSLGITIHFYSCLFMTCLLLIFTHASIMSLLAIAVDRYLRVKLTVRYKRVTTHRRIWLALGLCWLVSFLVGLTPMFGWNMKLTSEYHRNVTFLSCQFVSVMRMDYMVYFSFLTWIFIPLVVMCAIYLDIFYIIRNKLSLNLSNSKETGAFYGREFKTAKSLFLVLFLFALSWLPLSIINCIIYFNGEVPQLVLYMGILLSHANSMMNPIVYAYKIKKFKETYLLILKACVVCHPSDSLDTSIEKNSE

human A2a receptor = details: read-out: Reported Ki; cited from earlier work

**Q.** With Cc1[nH]c2nc(-c3ccccc3)nc(NC3CCC(NS(C)(=O)=O)CC3)c2c1C (stereo not drawn) [Compound 604] as the molecule, how does the Ki [1] read?
**A.** > 10000 nM

**Q.** For Cc1[nH]c2nc(-c3cccnc3)nc(N[C@H]3CC[C@H](O)CC3)c2c1C [Compound 700], which IC50 (human adenosine A1 (A1R)) is on record?
**A.** > 10000 nM

**Q.** With CNC(=O)NCCCNc1nc(-c2ccccc2)nc2[nH]c(C)c(C)c12 [Compound 1310] as the molecule, how does the “A2a binding, % value printed in Ki column” value [2] read?
**A.** 76%

**Q.** Which reported affinity [3] does the source give for CC(Cc1ccccc1)Nc1ncnc2c1ncn2[C@@H]1O[C@H](CO)[C@@H](O)[C@H]1O (single isomer, unassigned; (-)) [PIA, (−)-N6-(2-phenylisopropyl)-adenosine] here?
**A.** approximately 50 nM

**Q.** With COCc1cc2c(N3CCC[C@H]3C(N)=O)nc(-c3ccccc3)nc2[nH]1 [Compound 1605] as the molecule, how does the melting point read?
**A.** 213 to 215 °C

**Q.** Which melting point does the source give for COC(=O)c1cc2c(NC3CCC(O)CC3)nc(-c3ccccc3)nc2[nH]1 (stereo not drawn) [Compound 1627, 4-(4-Hydroxy-cyclohexylamino)-2-phenyl-7H-pyrrolo[2,3-d]pyrimidine-6-carboxylic acid methyl ester] here?
**A.** 225 to 227 °C

**Q.** Which Ki [1] does the source give for Cc1[nH]c2nc(-c3ccccc3)nc(NC3CCC(CC(=O)c4ccccc4)CC3)c2c1C (stereo not drawn) [Compound 611] here?
**A.** 786 nM

**Q.** And the IC50 (human adenosine A1 (A1R))?
**A.** > 10000 nM

**Q.** With NC(=O)c1cc2c(NC3CCC(O)CC3)nc(-c3ccccc3)nc2[nH]1 (stereo not drawn) [Compound 1630, 4-(4-Hydroxy-cyclohexylamino)-2-phenyl-7H-pyrrolo[2,3-d]pyrimidine-6-carboxylic acid amide] as the molecule, how does the melting point read?
**A.** 210 to 220 °C (dec.)

**Q.** Which results are given for Cc1[nH]c2nc(-c3ccccc3)nc(NCCNC(=O)C3(N)CC3)c2c1C [Compound 1313]?
**A.** A1 binding, % value printed in Ki column ([1]; no footnote at cell, footnote 8 of table: % activity @ 10 μM): 30%; A2a binding, % value printed in Ki column [2]: 65%

**Q.** Which “A3 binding, % activity @ 10 μM” value [4] does the source give for O[C@H]1CC[C@H](Nc2nc(-c3ccncc3)nc3[nH]ccc23)CC1 [Compound 1321] here?
**A.** 54%^8

**Q.** For NC(=O)[C@@H]1C[C@H](O)CN1c1nc(-c2ccccc2)nc2[nH]ccc12 [Compound 1606, 4-Hydroxy-1-(2-phenyl-7H-pyrrolo[2,3-d]pyrimidin-4-yl]-pyrrolidine-2-carboxylic acid amide], which melting point is on record?
**A.** 268 to 271 °C

**Q.** Which melting point does the source give for NC(=O)[C@@H]1CCCN1c1nc(-c2ccccc2)nc2[nH]c(C(=O)O)cc12 [Compound 1619, [4-(2-Carbamoylpyrrolidin-1-yl)-2-phenyl-7H-pyrrolo[2,3-d]pyrimidine-6-carboxylic acid]] here?
**A.** 220 °C (dec.)

**Q.** With NC(=O)[C@@H]1CCCN1c1nc(-c2ccccc2)nc2[nH]ccc12 [Compound 1602] as the molecule, how does the melting point read?
**A.** 236 to 238 °C

**Q.** What does the source list for Cc1[nH]c2nc(-c3ccccc3)nc(NC3CCC(NC(=O)c4ccccc4)CC3)c2c1C (stereo not drawn) [Compound 606]?
**A.** Ki [1]: 298 nM; IC50 (human adenosine A1 (A1R)): > 10000 nM
